Some results are limits rather than exact numbers.

The target in experiment [1] is Dual specificity tyrosine-phosphorylation-regulated kinase 1B (Homo sapiens, UniProt Q9Y463). The experiment can be described thus: Inhibition of N-terminal GST tagged human DYRK1B expressed in Sf21 cells incubated for 60 mins by ADP-Glo assay. Background: ADP-Glo first removes unused ATP, then detects ADP through luciferase.
The target of experiment [2] is Dual specificity tyrosine-phosphorylation-regulated kinase 1A (Homo sapiens, UniProt Q13627). In words: Inhibition of N-terminal GST tagged human DYRK1A expressed in Sf21 cells incubated for 30 mins by ADP-Glo assay.

Sequence of Dual specificity tyrosine-phosphorylation-regulated kinase 1B (Q9Y463 whole entry): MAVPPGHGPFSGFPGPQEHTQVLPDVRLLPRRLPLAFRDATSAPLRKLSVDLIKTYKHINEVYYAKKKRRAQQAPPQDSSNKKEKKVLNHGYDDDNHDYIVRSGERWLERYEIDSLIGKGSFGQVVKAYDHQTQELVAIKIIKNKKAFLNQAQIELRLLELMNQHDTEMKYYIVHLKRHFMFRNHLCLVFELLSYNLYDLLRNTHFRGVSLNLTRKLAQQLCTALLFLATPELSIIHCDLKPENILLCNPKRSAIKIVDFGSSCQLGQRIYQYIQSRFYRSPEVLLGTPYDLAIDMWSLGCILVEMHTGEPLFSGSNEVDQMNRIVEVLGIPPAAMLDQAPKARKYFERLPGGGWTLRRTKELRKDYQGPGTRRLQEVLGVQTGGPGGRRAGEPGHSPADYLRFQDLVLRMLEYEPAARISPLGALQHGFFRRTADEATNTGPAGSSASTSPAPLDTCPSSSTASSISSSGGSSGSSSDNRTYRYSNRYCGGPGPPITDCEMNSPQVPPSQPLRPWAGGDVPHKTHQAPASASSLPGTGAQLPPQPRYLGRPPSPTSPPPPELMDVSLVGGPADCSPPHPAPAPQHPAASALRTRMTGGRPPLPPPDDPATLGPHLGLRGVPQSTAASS

A word on the IC50: it is the concentration that gives 50% inhibition. Read a high IC50 as weaker potency in that assay. Consider `CC(=O)N1CCC(Nc2c(N)cnc3ccc(-c4c[nH]c5ncccc45)cc23)CC1`, for which the IC50 in experiment [1] and in experiment [2] was below 10 nM throughout. On to `c1cncc(-c2ccnc3ccc(-c4c[nH]c5ncccc45)cc23)c1`, for which the IC50 in experiment [1] and in experiment [2] was below 10 nM each time. `Fc1cc(-c2c[nH]c3ncccc23)cc2cccnc12`: the IC50 in experiment [1] and in experiment [2] was below 10 nM in each case. As for `N[C@H]1CC[C@H](Nc2ccnc3ccc(-c4c[nH]c5ncccc45)cc23)CC1`, in experiment [1], the IC50 was at least 100 nM. As to `O=C(NCc1ccccc1)c1cnc2[nH]cc(-c3cc(F)c4nccc(-c5cccnc5)c4c3)c2c1`, the IC50 was 10 nM in experiment [1] (sf21) and below 10 nM in experiment [2]. For the compound `Fc1cc(-c2c[nH]c3ncc(CNCc4ccccc4)cc23)cc2c(-c3cccnc3)ccnc12`, the concentration for half-maximal inhibition (IC50) in experiment [1] and in experiment [2] was below 10 nM throughout.

For `CN1CCC(N(C)c2c([N+](=O)[O-])cnc3ccc(-c4c[nH]c5ncccc45)cc23)CC1`, the IC50 in experiment [1] (sf21) and in experiment [2] (sf21) was 10 nM each time. In the case of `CNC(=O)c1cnc2[nH]cc(-c3ccc4ncc(NCC5CCOCC5)c(N5CCOCC5)c4c3)c2c1`, the concentration for half-maximal inhibition (IC50) in experiment [1] (sf21) was 10 nM; in experiment [2], below 10 nM. For `Nc1cnc2ccc(-c3c[nH]c4ncc(C(=O)NCc5cccnc5)cc34)cc2c1`, the IC50 in experiment [1] and in experiment [2] was below 10 nM throughout. On to `CNC(=O)c1cnc2[nH]cc(-c3cc(F)c4nccc(-c5cnccc5C)c4c3)c2c1`, for which the IC50 in experiment [1] and in experiment [2] was below 10 nM throughout. Turning to `Cc1cc(-c2c[nH]c3ncccc23)cc2cccnc12`, in experiment [1], the IC50 is at least 100 nM. With `N[C@@H]1CCCN(c2ccnc3c(F)cc(-c4c[nH]c5ncc(CNCc6ccccc6)cc45)cc23)C1`, the IC50 in experiment [1] and in experiment [2] was below 10 nM in each case.

With `CNC(=O)c1cnc2[nH]cc(-c3ccc4ncc(NCc5cccc(Cl)c5)c(N5CCC[C@H](N)C5)c4c3)c2c1`, the values for the IC50 in experiment [1] (sf21) and in experiment [2] were 10 nM and below 10 nM, respectively.

Take `c1cnc2[nH]cc(-c3ccc4nccc(-c5ccncc5)c4c3)c2c1`: the IC50 in experiment [1] and in experiment [2] was below 10 nM each time.

Turning to `c1cnc2ccc(-c3c[nH]c4ncccc34)cc2c1`, the 50% inhibitory concentration (IC50) in experiment [1] and in experiment [2] was below 10 nM each time. Turning to `CN1CCC(Nc2c(C#N)cnc3ccc(-c4c[nH]c5ncccc45)cc23)CC1`, the IC50 in experiment [1] (sf21) is 10 nM.

Regarding `CNC(=O)c1cnc2[nH]cc(-c3ccc4ncc(NCc5cccc(Cl)c5)c(N5CCOCC5)c4c3)c2c1`, the IC50 in experiment [1] (sf21) was 10 nM; in experiment [2], below 10 nM. For `Cc1cc(-c2c[nH]c3ncccc23)cc2c(-c3ccccc3)ccnc12`, the concentration for half-maximal inhibition (IC50) in experiment [1] and in experiment [2] was at least 100 nM throughout.

`COc1cc(-c2c[nH]c3ncccc23)cc2cccnc12` yielded an IC50 in experiment [1] of at least 100 nM. For `CNC(=O)c1cnc2[nH]cc(-c3cc(F)c4nccc(-c5cccnc5)c4c3)c2c1`, the IC50 in experiment [1] and in experiment [2] was below 10 nM each time.

`COc1cc(-c2c[nH]c3ncc(C(N)=O)cc23)cc2c(-c3cccnc3)ccnc12`: the values for the IC50 in experiment [1] and in experiment [2] (sf21) were at least 100 nM and 10 nM, respectively. With `C=CCN(C)C(=O)c1cnc2[nH]cc(-c3cc(F)c4ncccc4c3)c2c1`, the IC50 in experiment [1] and in experiment [2] was below 10 nM in each case. As for `N[C@@H]1CCCN(c2ccnc3c(F)cc(-c4c[nH]c5ncc(C(=O)NCc6cncnc6)cc45)cc23)C1`, the IC50 in experiment [1] and in experiment [2] was below 10 nM each time. Take `C=CCN(C)C(=O)c1cnc2[nH]cc(-c3cc(F)c4nccc(-c5cccnc5)c4c3)c2c1`: the IC50 in experiment [1] (sf21) is 10 nM; in experiment [2] it was below 10 nM. Regarding `CNC(=O)c1cnc2[nH]cc(-c3ccc4ncccc4c3)c2c1`, the IC50 in experiment [1] and in experiment [2] was below 10 nM throughout. Consider `C=CCN(C)Cc1cnc2[nH]cc(-c3cc(F)c4nccc(-c5cccnc5)c4c3)c2c1`, for which the IC50 is 10 nM in experiment [1] (sf21) and below 10 nM in experiment [2].

In the case of `CNC(=O)c1cnc2[nH]cc(-c3ccc4ncc(N)c(N5CCC[C@H](N)C5)c4c3)c2c1`, the IC50 in experiment [1] and in experiment [2] was below 10 nM throughout. On to `C=CCN(C)C(=O)c1cnc2[nH]cc(-c3cc(Cl)c4ncccc4c3)c2c1`, for which the IC50 in experiment [1] (sf21) was 10 nM; in experiment [2] it was below 10 nM. Take `C=CCN(C)C(=O)c1cnc2[nH]cc(-c3ccc4nccc(Cl)c4c3)c2c1`: the IC50 is 10 nM in experiment [1] (sf21) and below 10 nM in experiment [2]. For `N[C@H]1CCCN(c2ccnc3ccc(-c4c[nH]c5ncccc45)cc23)C1`, the IC50 in experiment [1] and in experiment [2] was below 10 nM throughout. Regarding `CC(=O)Nc1cnc2ccc(-c3c[nH]c4ncc(C(=O)NCc5cccnc5)cc34)cc2c1`, the IC50 in experiment [1] and in experiment [2] was below 10 nM in each case.

For the compound `Fc1cc(-c2c[nH]c3ncccc23)cc2c(-c3cccnc3)ccnc12`, the IC50 in experiment [1] and in experiment [2] was below 10 nM each time. For the compound `O=C(NCc1ccccc1)c1cnc2[nH]cc(-c3cc(F)c4ncccc4c3)c2c1`, the IC50 in experiment [1] and in experiment [2] was below 10 nM throughout. With `O=C(NCc1cccnc1)c1cnc2[nH]cc(-c3cc(F)c4nccc(-c5cccnc5)c4c3)c2c1`, the IC50 in experiment [1] and in experiment [2] was below 10 nM throughout. Regarding `NCCCNC(=O)c1cnc2[nH]cc(-c3cc(F)c4nccc(-c5cccnc5)c4c3)c2c1`, the concentration for half-maximal inhibition (IC50) in experiment [1] and in experiment [2] was below 10 nM throughout. In the case of `CNC(=O)c1cnc2[nH]cc(-c3cc(F)c4nccc(N5CCC[C@@H](N)C5)c4c3)c2c1`, the IC50 in experiment [1] and in experiment [2] was below 10 nM throughout.

Turning to `c1cnc2[nH]cc(-c3ccc4ncc(NCc5ccoc5)cc4c3)c2c1`, the IC50 in experiment [1] and in experiment [2] was below 10 nM each time.

As to `CNC(=O)c1cnc2[nH]cc(-c3ccc4ncc([N+](=O)[O-])c(N5CCC[C@H](N)C5)c4c3)c2c1`, the values for the concentration for half-maximal inhibition (IC50) in experiment [1] (sf21) and in experiment [2] were 10 nM and below 10 nM, respectively. In the case of `N[C@@H]1CCCN(c2ccnc3c(F)cc(-c4c[nH]c5ncc(C(=O)NCc6cccnc6)cc45)cc23)C1`, the IC50 in experiment [1] and in experiment [2] was below 10 nM each time. As for `Clc1cc(-c2c[nH]c3ncccc23)cc2cccnc12`, the IC50 in experiment [1] and in experiment [2] was below 10 nM in each case. As to `N[C@H]1CC[C@H](Nc2c([N+](=O)[O-])cnc3ccc(-c4c[nH]c5ncc(C(=O)NCc6cccnc6)cc45)cc23)CC1`, the IC50 in experiment [1] (sf21) and in experiment [2] (sf21) was 10 nM in each case.

For the compound `NCCCNC(=O)c1cnc2[nH]cc(-c3cc(F)c4ncccc4c3)c2c1`, the IC50 in experiment [1] and in experiment [2] was below 10 nM each time. Consider `N[C@H]1CC[C@H](Nc2c(NCC3CCOCC3)cnc3ccc(-c4c[nH]c5ncc(C(=O)NCc6cccnc6)cc45)cc23)CC1`, for which the values for the IC50 in experiment [1] (sf21) and in experiment [2] were 10 nM and below 10 nM, respectively. Consider `CNC(=O)c1cnc2[nH]cc(-c3ccc4nccc(N5CCOCC5)c4c3)c2c1`, for which the IC50 in experiment [1] and in experiment [2] was below 10 nM in each case. In turn, `CNC(=O)c1cnc2[nH]cc(-c3cc(C)c4nccc(-c5cccnc5)c4c3)c2c1` had an IC50 in experiment [1] of at least 100 nM.

With `NCCCNC(=O)c1cnc2[nH]cc(-c3cc(Cl)c4ncccc4c3)c2c1`, the IC50 in experiment [1] and in experiment [2] was below 10 nM in each case. Take `O=C(NCc1cccnc1)c1cnc2[nH]cc(-c3ccc4ncc(NCC5CCOCC5)cc4c3)c2c1`: the IC50 in experiment [1] and in experiment [2] was below 10 nM throughout.

Turning to `CNC(=O)c1cnc2[nH]cc(-c3ccc4nccc(-c5cccnc5)c4c3)c2c1`, the IC50 in experiment [1] and in experiment [2] was below 10 nM throughout. For the compound `C=CC1CN2CCC1CC2[C@H](O)c1ccnc2ccc(-c3c[nH]c4ncccc34)cc12` (some centres not stated), the IC50 in experiment [1] and in experiment [2] was below 10 nM throughout.

For the compound `C=CCN(C)C(=O)c1cnc2[nH]cc(-c3cc(OC)c4ncccc4c3)c2c1`, the IC50 in experiment [1] and in experiment [2] was at least 100 nM each time. In turn, `CN1CCC(Nc2ccnc3ccc(-c4c[nH]c5ncccc45)cc23)CC1` had an IC50 in experiment [1] (sf21) of 10 nM. With `c1ccc(-c2ccnc3ccc(-c4c[nH]c5ncccc45)cc23)cc1`, the IC50 in experiment [1] and in experiment [2] was below 10 nM each time. Turning to `O=C(NCc1ccccc1)c1cnc2[nH]cc(-c3cc(Cl)c4ncccc4c3)c2c1`, the values for the IC50 in experiment [1] (sf21) and in experiment [2] were 10 nM and below 10 nM, respectively. Consider `CNC(=O)c1cnc2[nH]cc(-c3cc(F)c4nccc(N5CCC[C@H](N)C5)c4c3)c2c1`, for which the IC50 in experiment [1] and in experiment [2] was below 10 nM each time.

In experiment [1], `N[C@H]1CCN(c2ccnc3ccc(-c4c[nH]c5ncccc45)cc23)C1` showed a 50% inhibitory concentration (IC50) below 10 nM. Turning to `CNC(=O)c1cnc2[nH]cc(-c3cc(OC)c4ncccc4c3)c2c1`, the IC50 in experiment [1] is at least 100 nM. Turning to `CC(=O)Nc1cnc2[nH]cc(-c3cc(F)c4nccc(-c5cccnc5)c4c3)c2c1`, the IC50 in experiment [1] and in experiment [2] was below 10 nM each time.

As for `NC(=O)c1cnc2[nH]cc(-c3cc(F)c4ncccc4c3)c2c1`, the IC50 in experiment [1] and in experiment [2] was below 10 nM each time. Turning to `CNC(=O)c1cnc2[nH]cc(-c3cc(F)c4nccc(CCc5ccccc5)c4c3)c2c1`, the IC50 in experiment [1] and in experiment [2] was below 10 nM in each case. On to `C=CCCCc1ccnc2ccc(-c3c[nH]c4ncc(CN(C)CC=C)cc34)cc12`, for which the IC50 in experiment [1] (sf21) is 10 nM; in experiment [2], below 10 nM. As to `CNC(=O)c1cnc2[nH]cc(-c3cc(F)c4ncccc4c3)c2c1`, the IC50 in experiment [1] and in experiment [2] was below 10 nM each time.

In the case of `FC(F)(F)Oc1cc(-c2c[nH]c3ncccc23)cc2cccnc12`, the IC50 in experiment [1] is at least 100 nM; in experiment [2] (sf21), 10 nM. Regarding `CNC(=O)c1cnc2[nH]cc(-c3ccc4nccc(Cl)c4c3)c2c1`, the IC50 in experiment [1] and in experiment [2] was below 10 nM each time. With `CNC(=O)c1cnc2[nH]cc(-c3ccc4ncc(NC(C)=O)c(N5CCOCC5)c4c3)c2c1`, the IC50 in experiment [1] and in experiment [2] was below 10 nM in each case. Consider `Cc1cc(-c2c[nH]c3ncccc23)cc2c(-c3cccnc3)ccnc12`, for which the IC50 in experiment [1] (sf21) turned out to be 10 nM. As for `Clc1ccnc2ccc(-c3c[nH]c4ncccc34)cc12`, the IC50 in experiment [1] (sf21) came out at 10 nM.
